Assays:
[1] = test system: HIV strain containing the Y181C mutation; assay: Spread assay, Y181C mutant strain; type: cell-based; conditions: Human immunodeficiency virus 1; spread assay, 10% FBS, Y181C mutant strain; read-out: CIC95
Summary of the method: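 Acute HIV-1 infection of T-lymphoid cells run in the presence of 10% FBS, […]; potency expressed as CIC95.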

[2] = test system: mutant strain containing both the K103N and Y181C mutations; assay: Spread assay, mutant strain containing both K103N and Y181C; type: cell-based, HIV; conditions: Human immunodeficiency virus 1; analogous spread assay, K103N and Y181C double mutant strain; read-out: CIC95
Description: Assays for the inhibition of acute HIV-1 infection of T-lymphoid cells (alternatively referred to herein as the “spread assay”) were conducted in accordance with Vacca, J. P. et al., Proc. Natl. Acad. Sci. USA 1994, 91: 4096. The assays (using 10% FBS) tested for inhibition of wild type HIV-1 and of HIV strains containing the Y181C or K103N mutation. […] (Note that the compound of Example 6 was tested only up to a 833 nM concentration and the CIC95 value was determined to be >833 nM. The compound of Example 78 was not tested in the Y1818C assay.) The compounds of Examples 1 to 119 (including Examples 70A and 70B) had CIC95 values of less than 1000 nanomolar in the assay employing the K103N mutant strain. In an analogous assay employing a mutant strain containing both the K103N and Y181C mutations, the compounds of Examples 70A, 70B and 78-115 had CIC95 values of less than 1000 nanomolar.

CC(C)c1c(C(=O)N(C)Cc2ccnc(Cl)c2F)[nH]c(C(N)=O)c1S(=O)(=O)c1ccccc1 [Example 108, N2-[(2-chloro-3-fluoropyridin-4-yl)methyl]-3-isopropyl-N2-methyl-4-(phenylsulfonyl)-1H-pyrrole-2,5-dicarboxamide]
IC95 [1]: < 8 µM
IC95 [2]: < 1 µM

Cc1cc(C)cc(S(=O)(=O)c2c(C(N)=O)[nH]c(C(=O)N(C)Cc3ccncc3F)c2C)c1 [Example 109, 3-[(3,5-dimethylphenyl)sulfonyl]-N5-[(3-fluoropyridin-4-yl)methyl]-N5,4-dimethyl-1H-pyrrole-2,5-dicarboxamide]
IC95 [1]: < 8 µM
IC95 [2]: < 1 µM

CC(C)c1c(C(=O)N(C)Cc2ccncc2F)[nH]c(C(N)=O)c1S(=O)(=O)c1ccccc1 [Example 110, N2-[(3-fluoropyridin-4-yl)methyl]-3-isopropyl-N2-methyl-4-(phenylsulfonyl)-1H-pyrrole-2,5-dicarboxamide]
IC95 [1]: < 8 µM
IC95 [2]: < 1 µM

Cc1cc(C)cc(S(=O)(=O)c2c(C(N)=O)[nH]c(C(=O)N(C)Cc3c(F)cncc3F)c2C)c1 [Example 111, N5-[(3,5-difluoropyridin-4-yl)methyl]-3-[(3,5-dimethylphenyl)sulfonyl]-N5,4-dimethyl-1H-pyrrole-2,5-dicarboxamide]
IC95 [1]: < 8 µM
IC95 [2]: < 1 µM

CC(C)c1c(C(=O)N(C)Cc2c(F)cncc2F)[nH]c(C(N)=O)c1S(=O)(=O)c1ccccc1 [Example 112, N2-[(3,5-difluoropyridin-4-yl)methyl]-3-isopropyl-N2-methyl-4-(phenylsulfonyl)-1H-pyrrole-2,5-dicarboxamide]
IC95 [1]: < 8 µM
IC95 [2]: < 1 µM

Cc1cc(C)cc(S(=O)(=O)c2c(C(N)=O)[nH]c(C(=O)N(C)Cc3cc(Cl)ncc3F)c2C)c1 [Example 113, N5-[(2-chloro-5-fluoropyridin-4-yl)methyl]-3-[(3,5-dimethylphenyl)sulfonyl]-N5,4-dimethyl-1H-pyrrole-2,5-dicarboxamide]
IC95 [1]: < 8 µM
IC95 [2]: < 1 µM

CC(C)c1c(C(=O)N(C)Cc2cc(Cl)ncc2F)[nH]c(C(N)=O)c1S(=O)(=O)c1ccccc1 [Example 114, N2-[(2-chloro-5-fluoropyridin-4-yl)methyl]-3-isopropyl-N2-methyl-4-(phenylsulfonyl)-1H-pyrrole-2,5-dicarboxamide]
IC95 [1]: < 8 µM
IC95 [2]: < 1 µM

CC(C)c1c(C(=O)N(C)Cc2ccnc(N)c2F)[nH]c(C(N)=O)c1S(=O)(=O)c1ccccc1 [Example 115, N2-[(2-amino-3-fluoropyridin-4-yl)methyl]-3-isopropyl-N2-methyl-4-(phenylsulfonyl)-1H-pyrrole-2,5-dicarboxamide]
IC95 [1]: < 8 µM
IC95 [2]: < 1 µM

Reference: US20100113421A1, “NON-NUCLEOSIDE REVERSE TRANSCRIPTASE INHIBITORS” (priority 2006, published 2010)
